Patent US20090203678A1, “PHARMACEUTICAL COMPOSITIONS FOR THE TREATMENT OF PROTOZOAN PARASITIC DISEASES” (priority 2006, published 2009)
Peptide text beside a SMILES is read from it. * marks the point of attachment. Cbz = O=C(OCc1ccccc1)*; CH2F = FC*

Legend:
[1] = test system: P. falciparum induced endothelial permeability of HLEC monolayer; test: Endothelial barrier integrity assay (Evans Blue diffusion through HLEC monolayer); format: cell-based, human
Procedure: In order to measure the effect of treatments on pre-exposed pRBCs endothelial cells, we developed a method based on Evans Blue diffusion through endothelial monolayer. Briefly HLEC were raised on Transwell Permeable supports (polyester membrane, 3 μm pore size, 6.5 mm diameter, Corning Incorporated Life Sciences) until confluence in M199 medium. Mature forms of 3D7 P. falciparum clone were then harvested from culture and adjusted at 1% of hematocrit and 50% of parasitemia before 4 hours co-incubation at 37° C. 5% CO2. After PRBC exposure, endothelial cell monolayers were treated 20 hours with Fasudil (1 μM or 30 μM). […] Lower compartments were finally collected for optical density analysis at 630 nm of diffused Evans Blue, using a standard microtiter plate reader (Bio-Tek™ EL311SX, Instruments Inc).
Briefly, P. falciparum cytoadherence effect on endothelial barrier function was assessed by culturing HLEC in Transwell inserts until confluence before exposing them 4 hours to mature forms of pRBC as above. The quantity of Evans Blue collected in lower compartments was markedly higher in pRBC/HLEC co-incubation conditions than in control RBC/HLEC (p<0.01) or non-exposed endothelial cell conditions (p<0.01). […]
Briefly, HLEC were cultured in Transwell inserts until confluence. […] Endothelial barrier integrity was assessed as described above.

[2] = test system: P. falciparum-induced apoptosis of human lung endothelial cells (HLEC); test: APOPercentage quantitative apoptosis assay, pRBC/HLEC co-incubation; format: cell-based; settings: 24 hours pRBC exposure, purple dye pixel number (FIG. 4)
Procedure: Endothelial apoptosis was quantitatively assessed using APOPercentage™ dye purchased from Biocolor Ltd. (Belfast, Northern Ireland). The assay uses a purple-red colour dye that is selectively incorporated into apoptotic but not necrotic cells. Unilateral uptake of the dye occurs through phosphatidylserines of the outer membrane of cells that undergo apoptosis. Endothelial cells were cultured in 6-well plates until confluence before exposure to P. falciparum infected erythrocytes during 24 hours. HLEC were incubated for 1 hour with the Apopercentage dye (1/20) before co-incubation time is reached and delicately washed 3 times with PBS. Apoptosis was then quantified by Analytical Digital Photomicroscopy (ADP): for each experiment 4 representative fields of each well of cell cultures were photographed using inverted phase contrast microscope coupled with a digital camera. Images were then transferred to a computer and the level of apoptosis was expressed as a red pixel number counted by Adobe® Photoshop®.
Briefly, APOPercentage™ was used as a mean to quantify induced apoptosis and the effect of Fasudil on cell survival during pRBC/HLEC co-incubations by quantitatively assessing the […] of purple red dye by apoptotic HLEC using Analytical Digital Photomicroscopy (ADP). […]

[3] = test system: NF-kappaB nuclear translocation in HLEC; test: NF-kappaB P65 nuclear translocation (endothelial activation) in pRBC-exposed HLEC; format: cell-based, human; settings: Fasudil 30 μM added concomitantly with pRBC, 6 hours, P<0.005 (FIG. 8)
Procedure: Briefly, HLEC were cultured in 8-chambers Labtek plates and exposed to pRBC during 6 hours at 1% of hematocrit and 50% of parasitemia. Rho-kinase inhibitor Fasudil was added concomitantly with pRBC at 30 μM. TNFβ at 20 ng/ml was used as a positive control of NF-kappaB nuclear translocation. Cells were then fixed and permeabilized for immunostaining with primary anti-NF-kappaB P65 subunit antibody and secondary FITC-anti-mouse IgG antibody. Nuclei were stained with diamidino-phenylindole (DAPI). After immunostaining of NF-kappaB P65 subunit, results were analysed by fluorescence microscopy and the number of activated HLEC (cells with complete but not partial migration nuclear P65 staining) per each condition (n=4) was counted (FIG. 8).

RhoA/Rho-kinase pathway = test: G-LISA RhoA/Rho-kinase pathway activation assay in HLEC co-incubated with P. falciparum pRBC; format: cell-based, human; settings: Fasudil 30 μM, 24 hours pRBC-contact co-incubation with HLEC, compared to pRBC alone, p<0.05 (FIG. 2)
Procedure: Activity of RhoA and its downstream effector Rho-kinase was assessed using G-LISA™ RhoA Activation Assay Biochem Kit purchased from Cytoskeleton (Denver, Colo.). The principle of the assay is to determine the amount of active GTP-bound RhoA extracted from cultured cells with a Rho-GTP-binding protein coated 96-well plate and final detection with immunoreagents. Briefly, HLEC were cultured in 6-well plates until 50-70% confluence as recommended by the manufacturer and exposed to P. falciparum infected erythrocytes or non infected erythrocytes at 1% of hematocrit and 50% of parasitemia. When used, Fasudil was added concomitantly with parasites at 30 μM. After 24 hours of incubation cells were washed and ice-cold lysed in phosphate buffer saline containing protease inhibitors. Cell lysates were then clarified by centrifugation at 4° C. 10,000 rpm for 2 min before measurement of protein concentrations. Cell extracts were equalized with lysis buffer to give identical protein concentrations before incubation in Rho-GTP affinity plate for 30 min at 4° C. […]
Briefly, RhoA activity in HLEC co-incubated during 24 hours with P. falciparum infected red blood cells (pRBC) or non infected red blood cells (RBC) was measured using the G-LISA™ RhoA activation kit (Cytoskeleton, Denver Colo.) as described in the Materials and Methods section.

Compound	quantity of Evans Blue in the lower compartment (OD 630 nm) ([1]; pRBC/HLEC co-incubation in the presence of z-vad 10 μM or 100 μM (FIG. 5))	decrease in apoptosis of pRBC-exposed HLEC compared to non treated cells ([2]; 1 μM Fasudil)	decrease in apoptosis of pRBC-exposed HLEC compared to non treated cells ([2]; 30 μM)	quantity of Evans Blue marker in lower compartment (OD 630 nm) ([1]; HLEC exposed 4 hours to pRBC, then 30 μM Fasudil for 20 hours, vs HLEC and pRBC, p<0.01 (FIG. 6))	P. falciparum-induced endothelial activation (% cells with nuclear NF-kappaB P65) [3]	activated RhoA concentration ([Rho-GTP], OD 490 nm) (RhoA/Rho-kinase pathway)
COC(=O)C[C@H](NC(=O)[C@H](C)NC(=O)[C@@H](NC(=O)OCc1ccccc1)C(C)C)C(=O)CF [z-vad, Z-VAD-fmk] (Cbz-Val-Ala-Asp(OMe)-CH2F)	significantly reduced	–	–	–	–	–
O=S(=O)(c1cccc2cnccc12)N1CCCNCC1 [Fasudil]	–	1.4 fold	4.1 fold	significantly lower	significantly reduces	significant decrease
